This test has as its target T1, endo β-1,4-D-glucanase.
T1 construct: gene egl1; native secreted enzyme purified from solid state culture (ammonium sulfate, DEAE-Sepharose, Sephadex G-100); ~55 kDa on SDS-PAGE, monomer
Nature of the test: inhibition of CMC hydrolysis, DNS reducing sugar assay, Lineweaver-Burk plot. It is filed as biochemical, Trichoderma harzianum. The note with it: competitive; substrate carboxymethyl cellulose; cellobiose 5 and 10 mM. From the text:
inhibition of CMC hydrolysis, DNS reducing sugar assay, Lineweaver-Burk plot on endo β-1,4-D-glucanase | cellobiose to be competitive inhibitor of endo β-1,4-D-glucanase in the presence of CMC substrate

In the case of `OC[C@H]1O[C@@H](O[C@H]2[C@H](O)[C@@H](O)C(O)O[C@@H]2CO)[C@H](O)[C@@H](O)[C@@H]1O` (stereo partly shown) [cellobiose], the Ki came out at 66 mM.

For the origin of these results see article PMC4829572, “Purification and characterization of endo β-1,4-D-glucanase from Trichoderma harzianum strain HZN11 and its application in production of bioethanol from sweet sorghum bagasse” (3 Biotech, 2016).
